Source: ChEMBL document CHEMBL3507680, “University of Dundee, Gates Library screen for HepG2 cell viability”

Assay: Human HepG2 cell viability assay in 384 well format
Type: toxicity, cell-based
Parameters: dose 125 nL, time 70.5 hour; cytotoxicity at 70.5 h: concentration not given beside the values
Details: HepG2 cells, read-out: Inhibition

Which cytotoxicity at 70.5 h does the source give for `Cc1ccc(CN(CCN(C)C)Cc2ccnn2C2CCCCO2)o1` (configuration not stated) here?
The cytotoxicity at 70.5 h was -3.26%.

With `COCCCNS(=O)(=O)c1cccc(CSC)c1` as the molecule, how does the cytotoxicity at 70.5 h read?
The cytotoxicity at 70.5 h was -16.6%.

With `O=C(NCCNc1cnccn1)N1CCCC1` as the molecule, how does the cytotoxicity at 70.5 h read?
The cytotoxicity at 70.5 h was 5.69%.

With `COCC1CN(S(=O)(=O)Cc2ccc(C)cc2)Cc2c1cnn2C` (configuration not stated) as the molecule, how does the cytotoxicity at 70.5 h read?
The cytotoxicity at 70.5 h was -6.77%.

For `O=C(Nc1cccnc1)[C@H]1CN(Cc2ccco2)C[C@H]2OCC[C@@H]12`, which cytotoxicity at 70.5 h is on record?
The cytotoxicity at 70.5 h was -7.09%.

For `COc1cc2c(cc1CNCc1ccnc(-n3cccn3)c1)OC(C)C2` (configuration not stated), which cytotoxicity at 70.5 h is on record?
Its cytotoxicity at 70.5 h is -12.6%.

With `CC(Cn1ccnc1)NC(=O)N1CCN(Cc2ccncc2)CC1` (configuration not stated) as the molecule, how does the cytotoxicity at 70.5 h read?
Its cytotoxicity at 70.5 h is -2.15%.

Which cytotoxicity at 70.5 h does the source give for `CC[S+](CC)[c-]1c(=O)[nH]c(=O)n(Cc2ccc(F)cc2)c1=O` here?
The cytotoxicity at 70.5 h was 3.21%.

Which cytotoxicity at 70.5 h does the source give for `CNC(=O)C1(N2CCC[C@H]2C(=O)NC2CCCCC2)CCOCC1` here?
Its cytotoxicity at 70.5 h is 5.4%.

Which cytotoxicity at 70.5 h does the source give for `Cc1noc(CCCC(=O)N2CCCCC2CNS(C)(=O)=O)n1` (configuration not stated) here?
Its cytotoxicity at 70.5 h is -9.36%.

With `CS(=O)(=O)CCN1CCC2(CCCN(C3CCOCC3)C2=O)C1` (configuration not stated) as the molecule, how does the cytotoxicity at 70.5 h read?
The cytotoxicity at 70.5 h was -5.34%.

With `CN(Cc1ccc2nsnc2c1)CC1(O)CCNC1` (configuration not stated) as the molecule, how does the cytotoxicity at 70.5 h read?
Its cytotoxicity at 70.5 h is -5.93%.

Which cytotoxicity at 70.5 h does the source give for `CC(C)(O)CCc1cccc(C(=O)NCCC2=CSC3=NCCCN23)c1` here?
The cytotoxicity at 70.5 h was -0.369%.

With `CCOCCCNC(=O)C(NC(=O)Cc1cccs1)c1ccccc1` (configuration not stated) as the molecule, how does the cytotoxicity at 70.5 h read?
The cytotoxicity at 70.5 h was 4.71%.

For `NC(=O)c1cc(C2CC2)nc2ccc(F)cc12`, which cytotoxicity at 70.5 h is on record?
Its cytotoxicity at 70.5 h is 2.17%.

For `O=C(O)[C@@H]1CN(C(=O)Cc2ccccc2Cl)C[C@H]1C1CC1`, which cytotoxicity at 70.5 h is on record?
Its cytotoxicity at 70.5 h is -15.8%.

For `CC(CCc1ccccc1)NC(=O)CNCCCN1CCOCC1` (configuration not stated), which cytotoxicity at 70.5 h is on record?
Its cytotoxicity at 70.5 h is 10.1%.

Which cytotoxicity at 70.5 h does the source give for `O=C(c1ccc(Br)s1)N1CCN(Cc2ccc(OC(F)(F)F)cc2)CC1` here?
The cytotoxicity at 70.5 h was 1.44%.

With `Cc1ccnc(NC(=O)c2ccc(C)o2)c1` as the molecule, how does the cytotoxicity at 70.5 h read?
The cytotoxicity at 70.5 h was 12.1%.

Which cytotoxicity at 70.5 h does the source give for `Cn1cccc1C(=O)N1CCC2(CCCN2S(C)(=O)=O)CC1` here?
Its cytotoxicity at 70.5 h is -8.2%.

With `COc1ccc2c(ccn2CC(=O)NC[C@@H]2CCCN3CCCC[C@H]23)c1` as the molecule, how does the cytotoxicity at 70.5 h read?
Its cytotoxicity at 70.5 h is -7.27%.

Which cytotoxicity at 70.5 h does the source give for `O=C(c1cccnc1)N1CCC2(CC1)CCN(c1ccsc1)C2=O` here?
The cytotoxicity at 70.5 h was -4.42%.

With `CCOc1ncnc2c1CCN(C(=O)CN(C)C)CC2` as the molecule, how does the cytotoxicity at 70.5 h read?
Its cytotoxicity at 70.5 h is 0.621%.

Which cytotoxicity at 70.5 h does the source give for `CC[C@H]1CN(S(=O)(=O)c2ccccc2)CC[C@H]1CC(=O)O` here?
Its cytotoxicity at 70.5 h is 5.41%.

Which cytotoxicity at 70.5 h does the source give for `CCCC1(CO)CCCN(c2ncnc3c2c(C)nn3C)C1` (configuration not stated) here?
The cytotoxicity at 70.5 h was -3.54%.

For `Cc1ccccc1C(=O)NC[C@@H]1CCN(C(=O)CN2CCCC2)C[C@H]1O`, which cytotoxicity at 70.5 h is on record?
The cytotoxicity at 70.5 h was -5.06%.

For `CCc1nc(C2CCCN2C(=O)CCc2ccc3c(c2)OCO3)no1` (configuration not stated), which cytotoxicity at 70.5 h is on record?
The cytotoxicity at 70.5 h was -24.9%.

With `CNC(=O)C(CC(C)C)NC(=O)c1cccc(-c2n[nH]c(C)n2)c1` (configuration not stated) as the molecule, how does the cytotoxicity at 70.5 h read?
Its cytotoxicity at 70.5 h is 0.903%.

Which cytotoxicity at 70.5 h does the source give for `Cc1cc(C)c2nc(CN3CCC(CN)C3)cc(O)c2c1` (configuration not stated) here?
Its cytotoxicity at 70.5 h is 6.13%.

For `COc1ccc(C(C(=O)O)N2CCN(C3CCCC3)CC2)cc1OC` (configuration not stated), which cytotoxicity at 70.5 h is on record?
Its cytotoxicity at 70.5 h is 12.5%.

For `CSc1cc2c(cc1NC(=O)N(C)Cc1cnn(C)c1)OCCO2`, which cytotoxicity at 70.5 h is on record?
Its cytotoxicity at 70.5 h is 2.84%.

With `CN(CCC#N)C(=O)CN1CCCN(Cc2noc(C3CC3)n2)CC1` as the molecule, how does the cytotoxicity at 70.5 h read?
Its cytotoxicity at 70.5 h is -0.995%.

With `Cc1nnc(CN2CCN(C)C3(CCNC(=O)CC3)C2)s1` (configuration not stated) as the molecule, how does the cytotoxicity at 70.5 h read?
The cytotoxicity at 70.5 h was 2.04%.

For `Cc1cccc(N2CCN(CCC(=O)NCc3cccnc3)CC2)c1`, which cytotoxicity at 70.5 h is on record?
Its cytotoxicity at 70.5 h is -0.687%.

With `Cc1nc(C)c(CCNC(=O)NC2CC(=O)N(C(C)(C)C)C2)s1` (configuration not stated) as the molecule, how does the cytotoxicity at 70.5 h read?
Its cytotoxicity at 70.5 h is -5.16%.

For `CCc1ccc(CN2CCN(C)C3(CCC(=O)N(CC4CC4)CC3)C2)o1` (configuration not stated), which cytotoxicity at 70.5 h is on record?
Its cytotoxicity at 70.5 h is -1.68%.

Which cytotoxicity at 70.5 h does the source give for `Cn1nccc1C(=O)N1Cc2cc(Cl)ccc2OC2(CCOCC2)C1` here?
Its cytotoxicity at 70.5 h is 2.41%.

With `CCC(CN1CCCCC1)NC(=O)C1(c2cccc(F)c2)CC1` (configuration not stated) as the molecule, how does the cytotoxicity at 70.5 h read?
The cytotoxicity at 70.5 h was -8.99%.

With `Cc1nc(NC(=O)NCc2cccnc2NCCN(C)C)sc1C` as the molecule, how does the cytotoxicity at 70.5 h read?
The cytotoxicity at 70.5 h was -2.85%.

With `COC[C@H]1CNC(=O)[C@@H]2CCN(Cc3ccc(F)cc3)CC[C@H]12` as the molecule, how does the cytotoxicity at 70.5 h read?
Its cytotoxicity at 70.5 h is -1.94%.

For `O=C(c1ccnc(N2CCOC(C(F)(F)F)C2)c1)N1CCOCC1` (configuration not stated), which cytotoxicity at 70.5 h is on record?
The cytotoxicity at 70.5 h was -19.7%.

For `O=C(N1CCCCC1)N1CCCC1c1nnc2n1CCNC2` (configuration not stated), which cytotoxicity at 70.5 h is on record?
The cytotoxicity at 70.5 h was 17.6%.

For `CC(C)c1nnc2n1CC(CNCc1ccsc1)CC2` (configuration not stated), which cytotoxicity at 70.5 h is on record?
The cytotoxicity at 70.5 h was 2.53%.

For `COCc1nccc(C2CCCN(Cc3ccc(C#N)cc3F)C2)n1` (configuration not stated), which cytotoxicity at 70.5 h is on record?
Its cytotoxicity at 70.5 h is -1.86%.

With `O=C1CC(c2ccccc2)c2c(n3ccsc3nc2=O)N1` (configuration not stated) as the molecule, how does the cytotoxicity at 70.5 h read?
Its cytotoxicity at 70.5 h is -20%.

With `Cc1cccc(NCCNc2ccc(C#N)cn2)n1` as the molecule, how does the cytotoxicity at 70.5 h read?
The cytotoxicity at 70.5 h was -5.87%.

With `CCN1CCCC(CNC(=O)C2(c3cccc(Cl)c3)CC2)C1` (configuration not stated) as the molecule, how does the cytotoxicity at 70.5 h read?
The cytotoxicity at 70.5 h was -0.608%.

Which cytotoxicity at 70.5 h does the source give for `CS(=O)(=O)CCCN1CCSCC1c1ccc(Cl)cc1` (configuration not stated) here?
The cytotoxicity at 70.5 h was -9.37%.

Which cytotoxicity at 70.5 h does the source give for `COCCN1CCCC2(CCN(c3ncc(Cl)cc3Cl)C2)C1=O` (configuration not stated) here?
The cytotoxicity at 70.5 h was -11%.

With `N#Cc1nccnc1NC1CCN(c2c(F)cccc2F)C1` (configuration not stated) as the molecule, how does the cytotoxicity at 70.5 h read?
The cytotoxicity at 70.5 h was -4.72%.

Which cytotoxicity at 70.5 h does the source give for `COc1ccc(CN(C(=O)C2CCCOC2)c2ccncc2)cc1` (configuration not stated) here?
Its cytotoxicity at 70.5 h is -3.58%.

With `O=C(c1cnn2cc(CCO)cnc12)N1CCOC(C(F)(F)F)C1` (configuration not stated) as the molecule, how does the cytotoxicity at 70.5 h read?
The cytotoxicity at 70.5 h was -13%.

Which cytotoxicity at 70.5 h does the source give for `CC(C)(C)C(NC(=O)CCS(C)(=O)=O)c1ccc(F)cc1F` (configuration not stated) here?
Its cytotoxicity at 70.5 h is -6.93%.

With `O=C(c1ccc2c(c1)CCO2)N1CCN(c2ccc(Cl)cn2)CC1` as the molecule, how does the cytotoxicity at 70.5 h read?
The cytotoxicity at 70.5 h was -0.811%.

For `COCCN1CCN(Cc2nc3c(s2)CCCC3)[C@H]2CS(=O)(=O)C[C@H]21`, which cytotoxicity at 70.5 h is on record?
The cytotoxicity at 70.5 h was -8.18%.

With `CC(c1ccccc1)N(C)C(=O)CNCCn1cccn1` (configuration not stated) as the molecule, how does the cytotoxicity at 70.5 h read?
Its cytotoxicity at 70.5 h is -10.3%.

Which cytotoxicity at 70.5 h does the source give for `Cc1cc(C)n(C2CCN(C(=O)CN3C(=O)CSc4ccccc43)C2)n1` (configuration not stated) here?
The cytotoxicity at 70.5 h was 30.3%.
